Measured values as given in patent US11667604B2, “Phenyl containing compound, intermediate thereof, preparation method therefor and application thereof” (SHANGHAI MODERN PHARMACEUTICAL ENGINEERING RESEARCH CENTER …, priority 2019, dated 2023).
Where a name gives a salt, the structure may show the parent alone.

Assay: Stability testing of carriers in solid form, residual amount determined by HPLC, and appearance
Assay type: physicochemical
Conditions: for Appearance: storage condition not specified
Experimental: The carrier of embodiment 1 was placed in solid form under normal temperature and normal light, normal temperature and away from light, 4° C. away from light and −18° C. away from light, respectively, and the residual amount of the carrier was measured after being placed for 1d, 3d, 7d, 30d, 60d, 90d and 120d, respectively, and the residual amount was determined by HPLC.
The sodium salt of N-(all-trans-retinoyl)-L-cysteic acid methyl ester was placed in solid form at normal temperature and normal light, at normal temperature and away from light, at 4° C. away from light and at −18° C. away from light respectively (other conditions are the same as those in embodiment 4), and the appearance and residual amount were tested after being placed for 1d, 3d, 7d and 30d, respectively, wherein the residual amount was determined by HPLC.

SMILES: COC(=O)[C@H](CS(=O)(=O)O)NC(=O)/C=C(C)/C=C/C=C(C)/C=C/C1=C(C)CCCC1(C)C [sodium salt of N-(all-trans-retinoyl)-L-cysteic acid methyl ester]
- Appearance (0 d): Yellow powder
- residual amount (4° C. away from light, 0 d): 99.54%
- residual amount (4° C. away from light, 3 d): 93.76%
- residual amount (4° C. away from light, 7 d): 89.09%
- residual amount (4° C. away from light, 30 d): 79.69%
- Appearance (3 d): Orange
- Appearance (7 d): Brown viscous
- Appearance (30 d): Dark brown viscous
- residual amount (normal temperature and away from light, 0 d): 99.54%
- residual amount (normal temperature and away from light, 3 d): 88.91%
- residual amount (normal temperature and away from light, 7 d): 78.62%
- residual amount (normal temperature and normal light, 0 d): 99.54%
- residual amount (normal temperature and normal light, 3 d): 83.71%
- residual amount (normal temperature and normal light, 7 d): 64.32%
- residual amount (−18° C. away from light, 0 d): 99.54%
- residual amount (−18° C. away from light, 3 d): 96.16%
- residual amount (−18° C. away from light, 7 d): 94.17%
- residual amount (−18° C. away from light, 30 d): 89.98%
